Earlier results, collected in PMC9184245 (Journal of Pesticide Science, 2022).

Columns and labels:
[1] = system: fish; settings: biomagnification factor, corrected by lipid content and growth rate
[2] = measured value from experimental database; ref EPI Suite ver. 4.11
[3] = measured value; ref REACH registered substances database

Compound | Bioaccumulation potential, BMF [1] | log Kow [2] | Water solubility [3]
O=[N+]([O-])c1ccc(Oc2ccc(Cl)cc2Cl)cc1 [Compound 3, Nitrofen] | BMF^d^)=0.179[4]) | 4.64^a^) | –
COc1ccc(C(c2ccc(OC)cc2)C(Cl)(Cl)Cl)cc1 [Compound 4, Methoxychlor] | – | 5.08^a^) | –
c1ccc2c(c1)ccc1ccccc12 [Compound 1, Phenanthrene] | – | 4.46^a^) | –
CC(C)(C)c1cc(CCC(=O)OCC(COC(=O)CCc2cc(C(C)(C)C)c(O)c(C(C)(C)C)c2)(COC(=O)CCc2cc(C(C)(C)C)c(O)c(C(C)(C)C)c2)COC(=O)CCc2cc(C(C)(C)C)c(O)c(C(C)(C)C)c2)cc(C(C)(C)C)c1O [Compound 9, Pentaerythritol tetrakis[3-(3,5-di-tert-butyl-4-hydroxyphenyl)propionate]] | – | – | <0.1^c^) mg/L
c1ccc(-c2ccccc2-c2ccccc2)cc1 [Compound 2, o-Terphenyl] | – | 5.52^a^) | –
